In patent publication US20120115877A1, “Facially Amphiphilic Compounds, Compositions, And Uses Thereof In Treating Cancer” (POLYMEDIX, INC., priority 2010, published 2012):

Key:
Assay type in all cases: cell-based, human
Settings in all cases: 10 μM
NCI/ADR-RES = test: NCI-60 screen, Ovarian Cancer
Experimental: (§1) Several compounds were tested at single concentrations (10 μM) against 59 different human tumor cell lines, representing leukemia, melanoma and cancers of the lung, colon, brain, ovary, breast, prostate, and kidney (see, Table 3). The human tumor cell lines of the cancer screening panel were grown in RPMI 1640 medium containing 5% fetal bovine serum and 2 mM L-glutamine. For a typical screening experiment, cells were inoculated into 96 well microtiter plates in 100 μL at plating densities ranging from 5,000 to 40,000 cells/well depending on the doubling time of individual cell lines. After cell inoculation, the microtiter plates were incubated at 37° C., 5% CO2, 95% air and 100% relative humidity for 24 hours prior to addition of the compounds.
(§2) After 24 hours, two plates of each cell line were fixed in situ with TCA, to represent a measurement of the cell population for each cell line at the time of drug addition (Tz). Compounds were solubilized in dimethyl sulfoxide at 400-fold the desired final maximum test concentration and stored frozen prior to use. At the time of drug addition, an aliquot of frozen concentrate was thawed and diluted to twice the desired final maximum test concentration with complete medium containing 50 μg/ml gentamicin. Additional four, 10-fold or ½ log serial dilutions were made to provide a total of five compound concentrations plus control. Aliquots of 100 μl of these different drug dilutions were added to the appropriate microtiter wells already containing 100 μl of medium, resulting in the required final compound concentrations.
(§3) Following drug addition, the plates were incubated for an additional 48 hours at 37° C., 5% CO2, 95% air, and 100% relative humidity. For adherent cells, the assay was terminated by the addition of cold TCA. Cells were fixed in situ by the gentle addition of 50 μl of cold 50% (w/v) TCA (final concentration, 10% TCA) and incubated for 60 minutes at 4° C. The supernatant was discarded, and the plates were washed five times with tap water and air dried. Sulforhodamine B (SRB) solution (100 μl) at 0.4% (w/v) in 1% acetic acid was added to each well, and plates were incubated for 10 minutes at room temperature. After staining, unbound dye was removed by washing five times with 1% acetic acid and the plates were air dried. Bound stain was subsequently solubilized with 10 mM trizma base, and the absorbance was read on an automated plate reader at a wavelength of 515 nm. For suspension cells, the methodology was the same except that the assay was terminated by fixing settled cells at the bottom of the wells by gently adding 50 μl of 80% TCA (final concentration, 16% TCA). Using the seven absorbance measurements (time zero, (Tz), control growth, (C), and test growth in the presence of drug at the five concentration levels (Ti)), the percentage growth was calculated at each of the compound concentrations levels. Percentage growth inhibition was calculated as:
(§4) [(Ti−Tz)/(C−Tz)]×100 for concentrations for which Ti>/=Tz
(§5) [(Ti−Tz)/Tz]×100 for concentrations for which Ti<Tz.
(§6) Three dose response parameters were calculated for each compound. Growth inhibition of 50% (GI50) was calculated from [(Ti−Tz)/(C−Tz)]×100=50, which is the compound concentration resulting in a 50% reduction in the net protein increase (as measured by SRB staining) in control cells during the compound incubation. The compound concentration resulting in total growth inhibition (TGI) was calculated from Ti=Tz. The LC50 (concentration of compound resulting in a 50% reduction in the measured protein at the end of the compound treatment as compared to that at the beginning) indicating a net loss of cells following treatment was calculated from [(Ti−Tz)/Tz]×100=−50. Values were calculated for each of these three parameters if the level of activity was reached; however, if the effect was not reached or was exceeded, the value for that parameter was expressed as greater or less than the maximum or minimum concentration tested.

SK-OV-3 = test: NCI-60 screen, Ovarian Cancer
Experimental: as §1, §2, §3, §4, §5, §6

OVCAR-3 = test: NCI-60 screen, Ovarian Cancer
Experimental: as §1, §2, §3, §4, §5, §6

OVCAR-5 = test: NCI-60 screen, Ovarian Cancer
Experimental: as §1, §2, §3, §4, §5, §6

OVCAR-8 = test: NCI-60 screen, Ovarian Cancer
Experimental: as §1, §2, §3, §4, §5, §6

OVCAR-4 = test: NCI-60 screen, Ovarian Cancer
Experimental: as §1, §2, §3, §4, §5, §6

IGROV1 = test: NCI-60 screen, Ovarian Cancer
Experimental: as §1, §2, §3, §4, §5, §6

HCT-116 = test: NCI-60 screen, Colon Cancer
Experimental: as §1, §2, §3, §4, §5, §6

HCC-2998 = test: NCI-60 screen, Colon Cancer
Experimental: as §1, §2, §3, §4, §5, §6

COLO 205 = test: NCI-60 screen, Colon Cancer
Experimental: as §1, §2, §3, §4, §5, §6

HT29 = test: NCI-60 screen, Colon Cancer
Experimental: as §1, §2, §3, §4, §5, §6

HCT-15 = test: NCI-60 screen, Colon Cancer
Experimental: as §1, §2, §3, §4, §5, §6

KM12 = test: NCI-60 screen, Colon Cancer
Experimental: as §1, §2, §3, §4, §5, §6

SW-620 = test: NCI-60 screen, Colon Cancer
Experimental: as §1, §2, §3, §4, §5, §6

NCI-H322M = test: NCI-60 screen, Non-Small Cell Lung Cancer
Experimental: as §1, §2, §3, §4, §5, §6

NCI-H226 = test: NCI-60 screen, Non-Small Cell Lung Cancer
Experimental: as §1, §2, §3, §4, §5, §6

NCI-H23 = test: NCI-60 screen, Non-Small Cell Lung Cancer
Experimental: as §1, §2, §3, §4, §5, §6

NCI-H522 = test: NCI-60 screen, Non-Small Cell Lung Cancer
Experimental: as §1, §2, §3, §4, §5, §6

EKVX = test: NCI-60 screen, Non-Small Cell Lung Cancer
Experimental: as §1, §2, §3, §4, §5, §6

HOP-92 = test: NCI-60 screen, Non-Small Cell Lung Cancer
Experimental: as §1, §2, §3, §4, §5, §6

HOP-62 = test: NCI-60 screen, Non-Small Cell Lung Cancer
Experimental: as §1, §2, §3, §4, §5, §6

NCI-H460 = test: NCI-60 screen, Non-Small Cell Lung Cancer
Experimental: as §1, §2, §3, §4, §5, §6

A549/ATCC = test: NCI-60 screen, Non-Small Cell Lung Cancer
Experimental: as §1, §2, §3, §4, §5, §6

K-562 = test: NCI-60 screen, Leukemia
Experimental: as §1, §2, §3, §4, §5, §6

SR = test: NCI-60 screen, Leukemia
Experimental: as §1, §2, §3, §4, §5, §6

HL-60(TB) = test: NCI-60 screen, Leukemia
Experimental: as §1, §2, §3, §4, §5, §6

MOLT-4 = test: NCI-60 screen, Leukemia
Experimental: as §1, §2, §3, §4, §5, §6

Row | SMILES | Percent Growth (NCI/ADR-RES) [%] | Percent Growth (SK-OV-3) [%] | Percent Growth (OVCAR-3) [%] | Percent Growth (OVCAR-5) [%] | Percent Growth (OVCAR-8) [%] | Percent Growth (OVCAR-4) [%] | Percent Growth (IGROV1) [%] | Percent Growth (HCT-116) [%] | Percent Growth (HCC-2998) [%] | Percent Growth (COLO 205) [%] | Percent Growth (HT29) [%] | Percent Growth (HCT-15) [%] | Percent Growth (KM12) [%] | Percent Growth (SW-620) [%] | Percent Growth (NCI-H322M) [%] | Percent Growth (NCI-H226) [%] | Percent Growth (NCI-H23) [%] | Percent Growth (NCI-H522) [%] | Percent Growth (EKVX) [%] | Percent Growth (HOP-92) [%] | further results
1 | NCCCc1cccc(-c2ccc3sc4ccc(-c5cccc(CCCN)c5)cc4c3c2)c1 [Compound D] | 95.39 | 103.1 | 62.71 | 96.93 | 83.89 | 59.85 | 80.28 | 0.5127 | 93.27 | 31.52 | 21.31 | 88.15 | 42.09 | 15.48 | 107 | 110.1 | 100.6 | 10.75 | 98.18 | 78.26 | Percent Growth (HOP-62): 90.64%; Percent Growth (NCI-H460): 69.57%; Percent Growth (A549/ATCC): 72.71%; Percent Growth (K-562): 12.99%; Percent Growth (SR): 0%; Percent Growth (HL-60(TB)): 68.33%; Percent Growth (MOLT-4): 2.072%
2 | c1cc(-c2ccc3sc4ccc(-c5ccnc(N6CCNCC6)c5)cc4c3c2)cc(N2CCNCC2)n1 [Compound E] | 3.12 | 51.66 | −94.47 | −46.66 | −61.04 | −87.74 | −43.57 | −48.52 | −9.443 | −59.52 | −87.5 | −54.01 | −87.84 | −87.3 | −53.02 | 39.89 | 52.19 | −93.93 | 22.56 | 32.76 | Percent Growth (HOP-62): −80.18%; Percent Growth (NCI-H460): −78.46%; Percent Growth (A549/ATCC): −77.24%; Percent Growth (K-562): −70.89%; Percent Growth (SR): −60.7%; Percent Growth (HL-60(TB)): −24.59%; Percent Growth (MOLT-4): −75.28%
